For assay [1], the system named is Colo-205 human colon adenocarcinoma cell line (doxorubicin-sensitive). Put plainly: MTT cytotoxicity assay in Colo-205. The following applies: 72 h incubation. The class given is cell-based. As for the experimental part:
(§1) The in vitro cytotoxic activity of the novel water-soluble amino acid derivatives of HQCl and their RhCp* and RuCym complexes was measured by the thiazolyl blue tetrazolium bromide (MTT) assay in two human colon adenocarcinoma cell lines (Colo-205 and Colo-320) and in one non-tumoral human lung fibroblast cell line (MRC-5). The results are given in terms of IC50 values (Table 1). Colo-205 is a drug-sensitive cell line with a normal ABCB1 transporter expression pattern, while Colo-320 is multidrug-resistant and overexpresses the ABCB1 system.
(§2) All cell culture reagents were obtained from Sigma-Aldrich and plasticware from Sarstedt (Nümbrecht, Germany). Human colonic Colo-205 doxorubicin-sensitive and Colo-320/MDR-LRP multidrug-resistant adenocarcinoma and MRC-5 human embryonal lung fibroblast cell lines were purchased from LGC Promochem, Teddington, UK. The colonic adenocarcinoma cells were cultured in Roswell Park Memorial Institute (RPMI) 1640 medium supplemented with 10% heat-inactivated fetal bovine serum, 2 mM L-glutamine, 1 mM sodium pyruvate and […]. The MRC-5 cell line was cultured in Eagle’s Minimal Essential Medium (EMEM, Sigma-Aldrich, St. Louis, MO, USA) supplemented with a non-essential amino acid (NEAA) mixture (Sigma-Aldrich, St. Louis, MO, USA) a selection of vitamins, 10% heat-inactivated foetal bovine serum (FBS), 2 mM L-glutamine (Sigma-Aldrich, St. Louis, MO, USA), 1 mM Na-pyruvate (Sigma-Aldrich, St. Louis, MO, USA), nystatin (Sigma-Aldrich, St. Louis, MO, USA) and a penicillin-streptomycin mixture (Sigma-Aldrich, St. Louis, MO, USA) in con-centrations of 100 U/L and 10 mg/L, respectively. The cells were incubated at 37 °C, in a 5% CO2, 95% air atmosphere. All cell lines were detached with Trypsin-Versene (EDTA) solution for 5 min at 37 °C.
(§3) The tested compounds were dissolved in 10% (v/v) DMSO/H2O using 4 mM concentration. Doxorubicin (Merck, Darmstadt, Germany) was used as a positive control. Then stock solutions were diluted in complete culture medium, and two-fold serial dilutions of compounds were prepared in 100 μL of the medium, horizontally. The semi-adherent colonic adenocarcinoma cells were treated with Trypsin-Versene (EDTA) solution. They were adjusted to a density of 1 × 10^4 cells in 100 μL of RPMI 1640 or EMEM medium and were added to each well, with the exception of the medium control wells. The final volume of the wells containing compounds and cells was 200 μL. The plates containing Colo-205, Colo-320 or MRC-5 cells were incubated at 37 °C for 72 h; at the end of the incubation period, 20 μL of MTT solution (from a stock solution of 5 mg/mL) were added to each well. After incubation at 37 °C for 4 h, 100 μL of SDS solution (10% in 0.01 M HCI) were added to each well, and the plates were further incubated at 37 °C overnight. […] The IC50 values were obtained from at least 3 independent experiments.
A general note: Tetrazolium assays rely on reduction of a dye to a coloured formazan, in cell work by metabolically active cells.

Assay [2] concerns MRC-5 human lung fibroblast cell line. Put plainly: MTT cytotoxicity assay in MRC-5. It counts as cell-based. As for the experimental part:
as §1, §2, §3

Assay [3] has as its target T1, HSA site I (subdomain IIA) (Homo sapiens, UniProt P02768).
T1 construct: purchased Sigma-Aldrich A8763
Briefly: Trp-214 quenching, spectrofluorometry. The following applies: cHSA = 1 µM, pH 7.4 (PBS’), λEX = 295 nm. The class given is binding. As for the experimental part:
(§4) Tryptophan (Trp-214) quenching and dansylglycine (DG) site marker displacement experiments were performed to calculate binding constants for site I and II, respectively, similar to our previous works.
(§5) Fluorescence measurements were carried out on a Fluoromax (Horiba Jobin Yvon, Longjumeau, France) spectrofluorometer using 1 cm × 1 cm quartz cuvette. Samples contained 1 µM HSA or 1 µM DG and 1 µM HSA, or 20 µM (nucleotide) ct-DNA and 5 µM EB, and the complex concentration was varied between 0 and 40 µM or 0 and 300 µM, respectively. Spectroscopic measurements were carried out on individually prepared samples. Excitation wavelengths were 295 nm for Trp-214 quenching, 340 nm for the DG displacement studies and 510 nm for the ct-DNA–EB system. The calculated conditional stability constants for HSA–complex species were obtained using the computer program HypSpec. Calculations always were based on data obtained from at least two independent measurements. Self-absorbance and inner filter effect had to be taken into account, and corrections were made as was described in our former works.

The target of assay [4] is T2, HSA site II (subdomain IIIA) (Homo sapiens, UniProt P02768).
T2 construct: purchased Sigma-Aldrich A8763
Put plainly: Dansylglycine (DG) site marker displacement, spectrofluorometry. It counts as binding. Particulars: cHSA = 1 µM, cDG = 1 µM, pH 7.4 (PBS’). As for the experimental part: as §4, §5

Another assay deals with pGEX-6P-1 plasmid DNA. Put plainly: In vitro DNA cleavage analysis, agarose gel electrophoresis. The class given is biochemical. Particulars: 50 ng plasmid, 0–100 µM compound, 37 °C, up to 72 h, pH 7.4. As for the experimental part:
In this assay, both single-stranded and double-stranded cleavage can be detected using bacterial plasmid DNA since the plasmid changes from the intact superhelical (sc) conformation to open circular (oc) and linear over digestion, which can be well detected by agarose gel electrophoresis. […] The RhCp* complex behaved similarly up to 10 µM, whereas at 100 µM concentration, the superhelical DNA remained intact during the incubation period, although the disappearance of the open circular DNA line is seen after 72 h. The observed effect is clearly not related to DNA cleavage; since fragmentation or the appearance of linear DNA could not be seen, the supercoiled DNA form was still visible. We can assume that the decrease in intensity might be due to the competition for DNA between the concentrated complex and EB (that is used for the detection of DNA in the gel).
Before the measurements, the reaction buffer was treated with 5 mg/L Chelex-100 (Sigma-Aldrich) cation exchange resin for 30 min at 25 °C. This was followed by filtration of the buffer through 0.2 µm pore size sterile, non-pyrogenic/endotoxin-free non-cytotoxic PES filter (Sarstedt) under laminal flow. The tested compounds were dissolved in this filtered cation exchanged buffer. pGEX-6P-1 DNA was purified by GeneJET plasmid maxiprep kit (Thermo Scientific™, Waltham, MA, USA) and was treated with Chelex-100 resin and filtered as described previously, and was followed by buffer exchange of the DNA sample using Amicon 10K 0.5 mL filters (4 × 5 min, 14,000 g, 25 °C) to the filtered reaction buffer. […] Based on agarose gel electrophoresis, no genomic DNA contamination was detected, and the plasmid DNA is largely in superhelical conformation with a small fraction of open circular form. In a typical reaction, 10 µL aliquots containing 50 ng DNA and 0–100 µM compound were incubated at 37 °C from 0 h up to 3 days. The reaction mixture was immediately examined after incubation or frozen at −30 °C until the gel electrophoresis experiment. […] Images were recorded by a Uvitec BTS 20MS gel documentation system.

Entries after “also recorded” stand apart in the source; their conditions may differ.

From PMC8570331, “8-Hydroxyquinoline-Amino Acid Hybrids and Their Half-Sandwich Rh and Ru Complexes: Synthesis, Anticancer Activities, Solution Chemistry and Interaction with Biomolecules” (International Journal of Molecular Sciences, 2021) come the findings set out here.

By IC50 is commonly meant the point on the concentration scale where inhibition reaches its midpoint. The low end stands for greater potency in that assay, the high end for weaker potency in that assay.

T2 sequence (P02768 25-609): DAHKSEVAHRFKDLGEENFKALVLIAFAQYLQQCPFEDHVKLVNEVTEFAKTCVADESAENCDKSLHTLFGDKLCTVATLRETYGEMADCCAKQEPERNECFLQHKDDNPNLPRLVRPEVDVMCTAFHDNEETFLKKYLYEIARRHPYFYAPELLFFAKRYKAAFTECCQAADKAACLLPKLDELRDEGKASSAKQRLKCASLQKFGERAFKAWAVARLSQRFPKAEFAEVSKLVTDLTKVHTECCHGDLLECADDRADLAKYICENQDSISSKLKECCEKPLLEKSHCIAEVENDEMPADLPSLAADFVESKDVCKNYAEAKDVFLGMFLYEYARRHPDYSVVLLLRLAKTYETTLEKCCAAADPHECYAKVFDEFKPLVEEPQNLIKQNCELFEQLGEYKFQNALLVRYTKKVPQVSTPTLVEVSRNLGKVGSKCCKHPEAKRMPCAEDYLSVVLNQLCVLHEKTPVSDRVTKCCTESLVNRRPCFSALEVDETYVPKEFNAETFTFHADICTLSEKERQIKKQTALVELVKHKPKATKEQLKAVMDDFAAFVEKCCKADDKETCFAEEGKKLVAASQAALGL
T1 sequence (P02768 25-609): as above

On to `Cc1c(C)c(C)[c-](C)c1C.O=C(O)[C@H]1CCC[NH+]1Cc1cc(Cl)c2cccnc2c1[O-].[Cl-].[Cl-].[Rh+3]` [RhCp*–HQCl-D-Pro, [RhCp*(HQCl-D-Pro)Cl]Cl], for which the values for the IC50 in assay [1] and in assay [2] (72 h incubation) were 31.5 ± 1.4 µM and 82.1 ± 5.1 µM, respectively. In assay [3], the “Trp-214 Quenching logKQ′, Site I” value was found to be 5.6 ± 0.1. For the same compound, the “DG Displacement logKDG′, Site II” value in assay [4] stood at 5.5 ± 0.1.
In the case of `Cc1ccc(C(C)C)cc1.O=C(O)[C@H]1CCC[NH+]1Cc1cc(Cl)c2cccnc2c1[O-].[Cl-].[Cl-].[Ru+2]` [RuCym–HQCl-D-Pro, [RuCym(HQCl-D-Pro)Cl]Cl], the IC50 in assay [1] and in assay [2] (72 h incubation) was > 100 µM in each case. In addition, the “Trp-214 Quenching logKQ′, Site I” value in assay [3] is 5.5 ± 0.1. Besides, the “DG Displacement logKDG′, Site II” value in assay [4] was determined as 5.6 ± 0.1.
For `Cc1ccc(C(C)C)cc1.O=C(O)[C@H]1CCCC[NH+]1Cc1cc(Cl)c2cccnc2c1[O-].[Cl-].[Cl-].[Ru+2]` [RuCym–HQCl-D-hPro, [RuCym(HQCl-D-hPro)Cl]Cl], the IC50 in assay [1] and in assay [2] (72 h incubation) was > 100 µM in each case. In addition, the “Trp-214 Quenching logKQ′, Site I” value in assay [3] turned out to be 5.3 ± 0.1. Also, the “DG Displacement logKDG′, Site II” value in assay [4] worked out at 5.7 ± 0.1. Further, the “DNA cleavage / DNA damage” value in the assay on pGEX-6P-1 plasmid DNA is “do not induce DNA cleavage; also recorded: No DNA damage was observed”.
The compound `O=C(O)[C@H]1CCCCN1Cc1cc(Cl)c2cccnc2c1O` [HQCl-D-hPro, (R)-5-chloro-7-((homoproline-1-yl)methyl)8-hydroxyquinoline] registered an IC50 in assay [2] (Homo sapiens, MRC5, 72 h incubation) of 3.63 ± 0.1 µM. In the assay on pGEX-6P-1 plasmid DNA, the “DNA cleavage / DNA damage” value is reported as “do not induce DNA cleavage; also recorded: No DNA damage was observed”.
As to `Cc1c(C)c(C)[c-](C)c1C.O=C(O)[C@H]1CCCC[NH+]1Cc1cc(Cl)c2cccnc2c1[O-].[Cl-].[Cl-].[Rh+3]` [RhCp*–HQCl-D-hPro, [RhCp*(HQCl-D-hPro)Cl]Cl], the values for the IC50 in assay [1] and in assay [2] (72 h incubation) were 21.5 ± 0.6 µM and 37.6 ± 2.3 µM, respectively. The “Trp-214 Quenching logKQ′, Site I” value in assay [3] is on record as 5.6 ± 0.1. Moreover, the “DG Displacement logKDG′, Site II” value in assay [4] is on record as 5.4 ± 0.1. Besides, the “DNA cleavage / DNA damage” value in the assay with pGEX-6P-1 plasmid DNA is listed as “do not induce DNA cleavage”.
